Results: the NIST ThermoML archive (doi:10.1016/j.fluid.2008.06.011)

Test: excess molar enthalpy (molar enthalpy of mixing); xn = mol fraction of the nth substance listed
Conditions: 298.15 K, 101 kPa, Liquid, Calvet calorimetry

CCCCCCCCCC [decane] + CCCO
Conditions	excess molar enthalpy [kcal/mol]
x2 = 0.1544	0.158
x2 = 0.1615	0.162
x2 = 0.2718	0.184
x2 = 0.3642	0.189
x2 = 0.4594	0.188
x2 = 0.5576	0.176
x2 = 0.6121	0.165
x2 = 0.6669	0.151
x2 = 0.7249	0.136
x2 = 0.7574	0.125
x2 = 0.7667	0.123
x2 = 0.8113	0.107
x2 = 0.8517	0.0894
x2 = 0.885	0.0741
x2 = 0.9219	0.0535
x2 = 0.9602	0.0292
x2 = 0.9832	0.0103
